Measured values as given in patent publication US11033539B2, “Compounds of formulas (VII), (VIII), (IX), (XI), (XII), (XIII), and (XIV) as muscarinic receptor 4(M4) antagonists for treating neurological diseases” (Neurocrine Biosciences, Inc., priority 2015, dated 2021).

Molecular target: human M4 receptor (Homo sapiens (Human), UniProt P08173)
Experiment: Radioligand (tritiated N-methylscopolamine) binding assay, M4
Conditions: Ki against the M4 receptor; membranes from CHO cells expressing human M4; tritiated N-methylscopolamine 1.5 nM; read-out: Ki
Description: Binding affinity (Ki) of compounds was measured by inhibition of radioligand binding to membranes from CHO cells expressing human M1, M2, M3, M4 and M5 receptors. Membranes were prepared by nitrogen cavitation and differential centrifugation as previously described (Hoare et al., Mol. Pharmacol. 2003 March; 63(3): 751-65). The radioligand employed was tritiated N-methylscopolamine, used at a concentration of 1.5 nM. A dose-response of twelve concentrations of compound was used, ranging from 10 μM to […]. The assay buffer was 50 mM HEPES, 100 mM NaCl, 5 mM MgCl2, 1 mM ethylenediaminetetraacetic acid, pH-adjusted to pH 7.4. Membranes, radioligand and compound were incubated together for 90 minutes at 37° C., in a total volume of 150 μl in a 96-well plate. Receptor-bound radioligand was then collected by harvesting the assay over glass fiber filters pretreated with polyethylenimine to trap the cell membranes, using rapid vacuum filtration. Harvesting and radioactivity counting was conducted as previously described (see, e.g., Hoare et al., Mol. Pharmacol. 2003 63(3):751-65); Erratum at Mol. Pharmacol. 2005 July; 68(1): 260).

Chain of human M4 receptor (P08173 whole entry): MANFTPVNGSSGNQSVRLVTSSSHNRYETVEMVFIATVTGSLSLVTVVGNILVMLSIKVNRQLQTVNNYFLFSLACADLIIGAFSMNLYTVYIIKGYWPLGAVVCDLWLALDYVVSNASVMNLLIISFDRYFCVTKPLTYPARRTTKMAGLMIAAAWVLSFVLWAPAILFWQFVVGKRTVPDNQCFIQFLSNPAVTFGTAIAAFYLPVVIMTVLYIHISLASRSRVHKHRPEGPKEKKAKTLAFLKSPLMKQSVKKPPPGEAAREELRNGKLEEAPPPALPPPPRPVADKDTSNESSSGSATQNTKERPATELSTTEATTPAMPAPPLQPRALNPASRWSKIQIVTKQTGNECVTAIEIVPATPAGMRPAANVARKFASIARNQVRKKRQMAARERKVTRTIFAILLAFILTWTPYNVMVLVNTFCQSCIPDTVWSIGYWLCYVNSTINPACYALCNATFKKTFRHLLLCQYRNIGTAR

Row | Molecule | Ki [nM]
1 | CCCn1c(=O)c2nc(-c3ccc(C(=O)NCCC4CCN(Cc5ccccc5)CC4)cc3)[nH]c2n(CCC)c1=O [9-45, N-[2-(1-benzylpiperidin-4-yl)ethyl]-4-(2,6-dioxo-1,3-dipropyl-2,3,6,9-tetrahydro-1H-purin-8-yl)benzamide] | 10 to 100
2 | Cc1ccc(N2CCN(C(=O)NCCC3CCN(Cc4ccccc4)CC3)CC2)c(CO)c1 [8-43, N-[2-(1-benzylpiperidin-4-yl)ethyl]-4-[2-(hydroxymethyl)-4-methylphenyl]piperazine-1-carboxamide] | 100 to 1000
3 | C[C@@H]1CN(c2cc(F)c(F)c(F)c2)CCN1C(=O)NCCC1CCN(Cc2ccccc2C#N)CC1 [6-29, (2R)-N-(2-{1-[(2-cyanophenyl)methyl]piperidin-4-yl}ethyl)-2-methyl-4-(3,4,5-trifluorophenyl)piperazine-1-carboxamide] | 100 to 1000
4 | C[C@@H]1CN(c2cc(F)c(F)c(F)c2)CCN1C(=O)NCCC1CCN(Cc2ccccn2)CC1 [6-7, (2R)-2-methyl-N-{2-[1-(pyridin-2-ylmethyl)piperidin-4-yl]ethyl}-4-(3,4,5-trifluorophenyl)piperazine-1-carboxamide] | 10 to 100
5 | C[C@@H]1CN(c2ncc(C#N)cn2)C[C@H](C)N1C(=O)NCCC1CCN(Cc2cccnc2)CC1 [6-61, (2R,6S)-4-(5-cyanopyrimidin-2-yl)-2,6-dimethyl-N-{2-[1-(pyridin-3-ylmethyl)piperidin-4-yl]ethyl}piperazine-1-carboxamide] | 100 to 1000
6 | O=C(NCCC1CCN(Cc2ccccc2)CC1)C1(O)CCN(c2cc(F)ccc2F)CC1 [10-64, N-[2-(1-benzylpiperidin-4-yl)ethyl]-1-(2,5-difluorophenyl)-4-hydroxypiperidine-4-carboxamide] | 100 to 1000
7 | O=C(NCCC1CCN(Cc2ccccc2)CC1)N1CCN(c2ncc(C(F)(F)F)cc2Cl)CC1 [8-15, N-[2-(1-benzylpiperidin-4-yl)ethyl]-4-[3-chloro-5-(trifluoromethyl)pyridin-2-yl]piperazine-1-carboxamide] | 10 to 100
8 | C[C@@H]1CN(c2cnc(C#N)cn2)C[C@H](C)N1C(=O)NCCC1CCN(Cc2ccccc2)CC1 [23-2, (2R,6S)-N-[2-(1-benzylpiperidin-4-yl)ethyl]-4-(5-cyanopyrazin-2-yl)-2,6-dimethylpiperazine-1-carboxamide] | 10 to 100
9 | C[C@@H]1CN(c2ncc(C#N)cn2)C[C@H](C)N1C(=O)NCCC1CCN(Cc2ccc3occc3c2)CC1 [6-60, (2R,6S)-N-{2-[1-(1-benzofuran-5-ylmethyl)piperidin-4-yl]ethyl}-4-(5-cyanopyrimidin-2-yl)-2,6-dimethylpiperazine-1-carboxamide] | 10 to 100
10 | O=C(NCCC1CCN(Cc2cccc3c2OCCO3)CC1)c1ccc(OCc2ccccc2)cc1 [11-7, 4-(benzyloxy)-N-{2-[1-(2,3-dihydro-1,4-benzodioxin-5-ylmethyl)piperidin-4-yl]ethyl}benzamide] | 10 to 100
11 | COc1ccccc1-c1cc2ncc(C(=O)NCCC3CCN(Cc4ccccc4)CC3)c(C)n2n1 [18-9] | 10 to 100
12 | C[C@@H]1CN(c2cc(F)c(F)c(F)c2)CCN1C(=O)NCCC1CCN(Cc2csnn2)CC1 [6-8, (2R)-2-methyl-N-{2-[1-(1,2,3-thiadiazol-4-ylmethyl)piperidin-4-yl]ethyl}-4-(3,4,5-trifluorophenyl)piperazine-1-carboxamide] | 10 to 100
13 | O=C(NCCC1CCN(Cc2ccccc2)CC1)C1CCN(c2ccc(Cl)nc2)CC1 [10-27, N-[2-(1-benzylpiperidin-4-yl)ethyl]-1-(6-chloropyridin-3-yl)piperidine-4-carboxamide] | 100 to 1000
14 | Cc1c(C(=O)NCCC2CCN(Cc3ccccc3)CC2)cnc2cc(-c3ccc(C(F)(F)F)cc3)nn12 [17-8, N-[2-(1-benzylpiperidin-4-yl)ethyl]-7-methyl-2-[4-(trifluoromethyl)phenyl]pyrazolo[1,5-a]pyrimidine-6-carboxamide] | 10 to 100
15 | C[C@@H]1CN(c2cc(F)c(F)c(F)c2)CCN1C(=O)NCCC1CCN(Cc2cccc(C#N)c2)CC1 [6-18, (2R)-N-(2-{1-[(3-cyanophenyl)methyl]piperidin-4-yl}ethyl)-2-methyl-4-(3,4,5-trifluorophenyl)piperazine-1-carboxamide] | 10 to 100
16 | C[C@@H]1CN(c2ccc(C#N)c(N(C)C)c2)CCN1C(=O)NCCC1CCN(Cc2ccccc2)CC1 [22-26] | 10 to 100
17 | O=C(NCCC1CCN(Cc2ccccc2)CC1)C1CCN(c2cc(C(F)(F)F)ccn2)CC1 [10-32, N-[2-(1-benzylpiperidin-4-yl)ethyl]-1-[4-(trifluoromethyl)pyridin-2-yl]piperidine-4-carboxamide] | 10 to 100
18 | CNc1nc(N2C[C@@H](C)N(C(=O)NCCC3CCN(Cc4ccccc4)CC3)[C@@H](C)C2)ncc1C#N [5-21, (2R,6S)-N-[2-(1-benzylpiperidin-4-yl)ethyl]-4-[5-cyano-4-(methylamino)pyrimidin-2-yl]-2,6-dimethylpiperazine-1-carboxamide] | 100 to 1000

Row | Molecule | Ki [nM]
19 | O=C(NCCC1CCN(Cc2ccccc2)CC1)c1ccc(-c2ccc(F)cc2)cc1 [9-41, N-[2-(1-benzylpiperidin-4-yl)ethyl]-4-(4-fluorophenyl)benzamide] | 10 to 100
20 | N#Cc1ccc(-c2ccc(C(=O)NCCC3CCN(Cc4ccccc4)CC3)cc2)cc1 [9-30, N-[2-(1-benzylpiperidin-4-yl)ethyl]-4-(4-cyanophenyl)benzamide] | 10 to 100
21 | COc1ccc(N2CCC(C(=O)NCCC3CCN(Cc4ccccc4)CC3)CC2)cc1F [10-39, N-[2-(1-benzylpiperidin-4-yl)ethyl]-1-(3-fluoro-4-methoxyphenyl)piperidine-4-carboxamide] | 10 to 100
22 | CN(CCNC(=O)C1CCN(c2ccc(OC(F)(F)F)cc2)CC1)[C@@H]1CCN(Cc2ccccc2)C1 [9-26, N-(2-{[(3R)-1-benzylpyrrolidin-3-yl](methyl)amino}ethyl)-1-[4-(trifluoromethoxy)phenyl]piperidine-4-carboxamide] | 10 to 100
23 | N-{2-[1-(2-hydroxy-1-phenylethyl)piperidin-4-yl]ethyl}-1-[4-(trifluoromethoxy)phenyl]piperidine-4-carboxamide [11-12] | 100 to 1000
24 | C[C@@H]1CN(c2ncc(C(=O)N3CCCC3)cn2)C[C@H](C)N1C(=O)NCCC1CCN(Cc2ccccc2)CC1 [27-2] | 100 to 1000
25 | O=C(C1CCN(c2ncc(C(F)(F)F)cc2Cl)CC1)N1CCN(C2CCN(Cc3ccccc3)CC2)CC1 [9-21, 1-(1-benzylpiperidin-4-yl)-4-{1-[3-chloro-5-(trifluoromethyl)pyridin-2-yl]piperidine-4-carbonyl}piperazine] | 10 to 100
26 | O=C(NCCC1CCN(Cc2ccccc2)CC1)C1CCN(c2ccc(C(F)(F)F)cn2)CC1 [10-24, N-[2-(1-benzylpiperidin-4-yl)ethyl]-1-[5-(trifluoromethyl)pyridin-2-yl]piperidine-4-carboxamide] | 10 to 100
27 | O=C(NCCC1CCN(Cc2ccccc2)CC1)C1(O)CCN(c2ccc(OC(F)(F)F)c(F)c2)CC1 [10-41, N-[2-(1-benzylpiperidin-4-yl)ethyl]-1-[3-fluoro-4-(trifluoromethoxy)phenyl]-4-hydroxypiperidine-4-carboxamide] | 10 to 100
28 | COc1ccc(N2CCC(C(=O)NCCC3CCN(Cc4ccccc4)CC3)CC2)nc1 [10-28, N-[2-(1-benzylpiperidin-4-yl)ethyl]-1-(5-methoxypyridin-2-yl)piperidine-4-carboxamide] | 100 to 1000
29 | CN(C(=O)C1CCN(c2ccc(OC(F)(F)F)cc2)CC1)C1CCN(C2CCN(Cc3ccccc3)CC2)C1 (stereo not drawn) [9-23, N-[1-(1-benzylpiperidin-4-yl)pyrrolidin-3-yl]-N-methyl-1-[4-(trifluoromethoxy)phenyl]piperidine-4-carboxamide] | 10 to 100
30 | N#Cc1cccc(N2CCC(NC(=O)OCCC3CCN(Cc4ccccc4)CC3)CC2)c1 [12-5, 2-(1-benzylpiperidin-4-yl)ethyl N-[1-(3-cyanophenyl)piperidin-4-yl]carbamate] | 100 to 1000
31 | C[C@@H]1CN(c2ccc(OC(F)(F)F)c(C#N)c2)CCN1C(=O)NCCC1CCN(Cc2ccc(I)cc2)CC1 [3-7, (2R)-4-[3-cyano-4-(trifluoromethoxy)phenyl]-N-(2-{1-[(4-iodophenyl)methyl]piperidin-4-yl}ethyl)-2-methylpiperazine-1-carboxamide] | 10 to 100
32 | Cc1c(C(=O)NCCC2CCN(Cc3ccccc3)CC2)cnc2cc(-c3ccnc(F)c3)nn12 [18-20] | 10 to 100
33 | CC(=O)O[C@H](CNC(=O)N1CCN(c2ccc(F)c(C#N)c2)C[C@H]1C)C1CCN(Cc2ccccc2)CC1 [3-2, (1S)-1-(1-benzylpiperidin-4-yl)-2-{[(2R)-4-(3-cyano-4-fluorophenyl)-2-methylpiperazine-1-carbonyl]amino}ethyl acetate] | 10 to 100
34 | C[C@@H]1CN(c2cc(F)c(F)c(F)c2)CCN1C(=O)NCCC1CCN(CC2CCCCC2)CC1 [6-6, (2R)-N-{2-[1-(cyclohexylmethyl)piperidin-4-yl]ethyl}-2-methyl-4-(3,4,5-trifluorophenyl)piperazine-1-carboxamide] | 10 to 100
35 | CCNC(=O)c1cnc(N2CCN(C(=O)NCCC3CCN(Cc4ccccc4)CC3)[C@H](C)C2)nc1 [27-16] | 100 to 1000
36 | COc1nc(N2CCN(C(=O)NCCC3CCN(Cc4ccccc4)CC3)[C@H](C)C2)ncc1C#N [4-26, (2R)-N-[2-(1-benzylpiperidin-4-yl)ethyl]-4-(5-cyano-4-methoxypyrimidin-2-yl)-2-methylpiperazine-1-carboxamide] | 10 to 100
